This is an account of results in US20230338572A1, “ANTI-TM4SF1 ANTIBODY-DRUG CONJUGATES COMPRISING CLEAVABLE LINKERS AND METHODS OF USING SAME” (Angiex, Inc., priority 2020, published 2023).

One series relates to HUVEC. In words: In vitro cell proliferation inhibition assay (Example 10). It counts as cell-based, human. As to conditions: free drug/linker payload, 5 days. The protocol: (§1) The effects of antibody drug-conjugates (drug to antibody ratio (DAR) varying from 0.9 to 3.5) containing a drug (maytansine or camptothecin) assessed in cultured mouse (MS1) and human (HUVEC, and MiaPaCa2) cells. The structures of the ADC tested are listed in Table 8 and shown in FIG. 19 (ADC) and FIG. 26 (ADC2, ADC3, and ADC4). Both Exemplary Antibody 1 and Exemplary Antibody 2 contain human IgG1 constant region with YTEC mutation. Cells were incubated for 5 days with the antibody drug conjugate before assessing cell viability on day 5.
(§2) In this experiment, different payloads were respectively assessed in cultured mouse (MS1) and human (MiaPaCa2 and HUVEC) cells. Cells were treated incubated for 5 days with the antibody drug conjugate before assessing cell viability on day 5.

The test system of another series is MS1. The series is described as above. It is filed as cell-based, mouse. The note with it: free drug/linker payload, 5 days. On the procedure: as §1, §2
For series [1] the following is noted: cited from earlier work.
The next series has as its system MiaPaCa2. Briefly: In vitro cell proliferation inhibition assay (Example 10). It is filed as cell-based, human. As to conditions: free drug/linker payload; 5 days. The protocol: as §1, §2
Series [2] has as its target T1, human TM4SF1 (transmembrane-4 L six family member-1), on HUVEC cells (UniProt P30408 1-202).
T1 chain: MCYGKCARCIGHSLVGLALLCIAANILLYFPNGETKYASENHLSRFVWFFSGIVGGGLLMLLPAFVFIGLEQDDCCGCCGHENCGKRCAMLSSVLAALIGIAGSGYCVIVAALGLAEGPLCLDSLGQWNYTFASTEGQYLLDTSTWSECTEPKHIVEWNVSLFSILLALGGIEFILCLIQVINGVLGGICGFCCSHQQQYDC
In words: flow cytometry, HUVEC. A general note: A flow cytometer gives signals particle by particle.

For `CC[C@@]1(O)C(=O)OCc2c1cc1n(c2=O)Cc2cc3ccccc3nc2-1` [payload 3, Camptothecin], the 50% effective concentration (EC50) (usually the midpoint of the concentration-response curve) is 1.89 nM with HUVEC (Homo sapiens, HUVEC, 120 h) and 34.3 nM in the series with MS1 (Mus musculus, MS-1, 120 h).

For Combretastatin [CA4P], in series [1] (Phase II FALCON study, reduced from 16.2), the Overall survival was 13.6 months. Also, the “Patients who experienced heart attacks while being treated” value in series [1] (human, in vivo) is given as “seven”.

In the case of “Maleimide-ethylamino-nosyl-Ahx-Maytansine [payload 1]”, the figures for the EC50 in the series with MiaPaCa2 and in the series on HUVEC were 0.0395 nM and 0.114 nM, respectively.

For the molecule “Maleimide-tetrazine-PEG3-methyl-EDA-nosyl-Camptothecin [payload 2]”, the 50% effective concentration (EC50) was 1450 nM in the series on HUVEC and 6710 nM in the series on MS1.

B1: AGX-A07 "YTEC" variant (anti-TM4SF1 antibody AGX-A07 with Fc mutations N297C, M252Y, S254T and T256E), naked antibody (antibody, V domains shown)
VH: QIQLVQSGPELKKPGETVKISCKASGYTFTNYGVKWVKQAPGKDLKWMGWINTYTGNPIYAADFKGRFAFSLETSASTAFLQINNLKNEDTATYFCVRFQYGDYRYFDVWGAGTTVTVSS
VL: QIILSQSPAILSASPGEKVTMTCRANSGISFINWYQQKPGSSPKPWIYGTANLASGVPARFGGSGSGTSYSLTISRVEAEDAATYYCQQWSSNPLTFGAGTKLELR
Turning to B1, the EC50 in series [2] turned out to be 1.75 nM. This counts as single-digit nanomolar.
